Results on two compounds are retold here after paper PMC7118210 (Frontiers in Pharmacology, 2020).

This data set is described as follows: Multiple-dose pharmacokinetics in healthy humans. Type of data set: in vivo, human. As for the experimental part: Naringin and placebo tablets were identical in appearance and participants, care providers, and those assessing outcomes were blinded to the study drug assignment. Using the Statistical Analysis System (SAS) software (Version 9.4, SAS Institute Inc., Cary, NC, USA), subject randomization and blinding/masking were performed by statisticians from the Department of Health Statistics at the Second Military Medical University. […] Human urine samples were collected at −12~0, 0~4, 4~8, 8~12, 12~24, 24~36, 36~48, 48~60, and 60~72 h for the single-dose groups and −12~0 (Day1), −12~0 (Day7), 0~4, 4~8, 8~12, 12~24, 24~36, 36~48, 48~60, and 60~72 h (Day7) for the multiple-dose group with records of volume. Human feces were collected in storage boxes, weighed, and recorded from 12 h before administration to 72 h postadministration. […] The optimal volume and activity in unit volume of enzyme solution [0.2 M acetic acid/water solution: 0.2 M ammonium acetate/water solution, 15:35 (v/v)] were determined through a pretest of the enzyme (rat plasma, 10 μl, 10 U μl^-1; dog plasma, 10 μl, 10 U μl^-1; human plasma, 20 μl, 20 U μl^-1; human urine, 10 μl, 10 U μl^-1). After enzyme incubation, 10 μl of IS solution was added to the plasma and urine samples (2 μg ml^-1 quercetin 3-β-D-glucoside for rat and dog plasma; 583 ng ml^-1 naringin-D4 and 160 ng ml^-1 naringenin-D4 for human plasma; and 9,710 ng ml^-1 naringin-D4 and 6,000 ng ml^-1 naringenin-D4 for human urine). To each fecal sample, 9-fold methanol-normal saline (2:1, v/v) was added, mixed (18,000 rpm, 15 min) by vortexing and centrifuged (10 min, 9,000 rpm, 4°C). Next, 10 μl IS solution (971 ng ml^-1 naringin-D4 and 600 ng ml^-1 naringenin-D4) was added to the supernatants of feces (200 μl) without enzyme incubation. […] The solid material was dissolved with acetonitrile-water (1:1, v/v) and injected into the ultra high-performance liquid chromatography coupled with triple quadrupole mass spectrometry (UHPLC/MS/MS) system as described below. The analysis of nonclinical and clinical samples was performed with a UHPLC/MS/MS system that consisted of a Shimadzu Nexera X2 ultra high-performance liquid chromatography (UHPLC) (Shimadzu Corp., Kyoto, Japan) coupled with an AB Sciex API4000 triple-quadrupole mass spectrometry (MS/MS) system (AB Sciex, Foster City, CA, USA) equipped with an electrospray ionization source and controlled by Analyst (v. 1.6.2) software. […] The injection volume was 10 μl with the flow rate of 0.3 ml min^-1 for plasma, and 0.4 ml min^-1 for urine and feces. The compounds were detected by multiple reaction monitoring in the negative ion electrospray mode. The electrospray source conditions were as follows: ion source gas1 30 psi, ion source gas2 60 psi, curtain gas 20 psi, collisionally activated dissociation (CAD) gas 8 psi, temperature 500°C, and ion spray voltage −4,500 V. Zero air was used for ion source gas1 and ion source gas2 and nitrogen for curtain gas and CAD gas. […] All pharmacokinetic and excretion parameters were expressed as mean ± standard deviation (SD). All mean and SD values were reported to three significant figures. The pharmacokinetic parameters were calculated using the Phoenix WinNonlin software (Version 6.4, Pharsight Corp., Cary, NC, USA) and compared using the Student's t-test (p < 0.05) in SPSS 18.0 (SPSS Inc., Chicago, IL, USA). […] For the multiple-dose studies, pharmacokinetic parameters included the mean plasma level at steady state, Tmax, t1/2, the percent fluctuation, and the accumulation index (Table 3). […] In addition, we compared the pharmacokinetic parameters obtained from males and females (Tables 4–6).

Setting [1] is: naringin 160 mg multiple dose, human, female.
Setting [2] is: naringin 160 mg multiple dose, human, male.
Setting [3] is: naringin 160 mg p.o. three times a day, multiple dose, human.

As for `C[C@@H]1O[C@@H](O[C@H]2[C@H](Oc3cc(O)c4c(c3)O[C@H](c3ccc(O)cc3)CC4=O)O[C@H](CO)[C@@H](O)[C@@H]2O)[C@H](O)[C@H](O)[C@H]1O` [naringin, Naringin], for the setting “humans”, the “accumulation in multiple-dose study” value was “no significant accumulation”. Further, the CavSS by setting is: under setting [1], 1.74 ± 0.377 ng/mL; under setting [2], 1.75 ± 0.403 ng/mL; under setting [3], 1.75 ± 0.365 ng/mL. Also, the Fluctuation was found to be 149 ± 37.5% under setting [1]; 210 ± 79.6% under setting [2]; 187 ± 70.7% (naringin 160 mg p.o. three times a day, multiple dose, human, (CmaxSS−CminSS)/CavSS×100%).

By Tmax is commonly meant the time at which the peak concentration occurs. For the compound `O=C1C[C@@H](c2ccc(O)cc2)Oc2cc(O)cc(O)c21` [naringenin, Naringenin], where the note is “in vivo”, the “accumulation in multiple-dose study” value is “no significant accumulation”. Also, the CavSS runs as follows: under setting [1], 22.6 ± 8.42 ng/mL; under setting [2], 47.2 ± 47 ng/mL; under setting [3], 39 ± 38.7 ng/mL. In addition, the Tmax under setting [3] came to 5.83 ± 1.17 h.
